Key:
[1] = Colon pharmacokinetics in mice; assay type: in vivo; conditions: colon to plasma concentration ratio at 8 h time point, 30 mg/kg oral gavage in 0.5% methyl-cellulose, Male C57BL/6 Mouse; for Kp at 8 h: read-out: Mouse TD Colon/Plasma @ 8
Protocol: Assay 2: Colon Pharmacokinetics in Mice
The test compound was formulated in 0.5% methyl-cellulose in water and dosed via oral gavage at 30 mg/kg to Male C57BL/6 Mouse. At various time points (typically 15 min, 30 min, 1, 2, 4, 6 and 8 h) post dosing, blood samples were removed via cardiac […] puncture and intact colons were excised from the […]. Blood samples were centrifuged at 1500 x g for 15 min to collect plasma. At the terminal time point each individual animal is anaesthetized, abdominal cavity is opened and from 2 cm below the caecum a 4 cm sample of the colon is dissected, cut open on the longitudinal axis and the solid contents removed by flushing with 2 mL of physiological fluid. The colon was further washed by putting it in 5 mL of physiological saline and shaken for 1 minute. The colon was pet dry weighed and transferred in 2 mL tubes. Colon will be weighted and homogenized with water by tissue weight (g) to water volume (mL) at ratio 1:3 before analysis. The actual concentration is the detected value multiplied by the dilution factor. A colon to plasma ratio was determined as the ratio of the colon cone, to the plasma cone, in pg hr/g, at 8 h time point.

[2] = tested on: IL-1β production in PMA-differentiated THP-1 cells; test: IL-1β production in PMA-differentiated THP-1 cells stimulated with gramicidin (hTHP-1 assay, 2% fetal bovine serum); assay type: cell-based, human
Protocol: THP-1 cells were purchased from the American Type Culture Collection and sub-cultured according to instructions from the supplier. Cells were cultured in complete RPMI 1640 (containing 10% heat inactivated FBS, penicillin (100 units/ml) and streptomycin (100 μg/ml)), and maintained in log phase prior to experimental setup. Prior to the experiment, compounds were dissolved in dimethyl sulfoxide (DMSO) to generate a 30 mM stock. The compound stock was first pre-diluted in DMSO to 3, 0.34, 0.042 and 0.0083 mM intermediate concentrations and subsequently spotted using Echo550 liquid handler into an empty 384-well assay plate to achieve desired final concentration (e.g. 100, 33, 11, 3,7, 1.2, 0.41, 0.14, 0.046, 0.015, 0.0051, 0.0017 μM). DMSO was backfilled in the plate to achieve a final DMSO assay concentration of 0.37%. The plate was then sealed and stored at room temperature until required. THP-1 cells were treated with PMA (Phorbol 12-myristate 13-acetate) (20 ng/ml) for 16-18 hours. On the day of the experiment the media was removed and adherent cells were detached with trypsin for 5 minutes. Cells were then harvested, washed with complete RPMI 1640, spun down, and resuspended in RPMI 1640 (containing 2% heat inactivated FBS, penicillin (100 units/ml) and streptomycin (100 μg/ml). The cells were plated in the 384-well assay plate containing the spotted compounds at a density of 50,000 cells/well (final assay volume 50 μl). Ceils were incubated with compounds for 1 hour and then stimulated with gramicidin (5 μM) (Enzo) for 2 hours. Plates were then centrifuged at 340 g for 5 min. Cell free supernatant (40 μL) was collected using a 96-channel PlateMaster (Gilson) and the production of IL-1β was evaluated by HTRF (cisbio). The plates were incubated for 18 h at 4° C. and read using the preset HTRF program (donor emission at 620 nm, acceptor emission at 668 nm) of the SpectraMax i3x spectrophotometer (Molecular Devices, software SoftMax 6). A vehicle only control and a dose titration of CRID3 (100-0.0017 μM) were run concurrently with each experiment. Data was normalized to vehicle-treated samples (equivalent to 0% inhibition) and CRID3 at 100 μM (equivalent to 100% inhibition).
Procedure 2: IL-1β Production in PMA-Differentiated THP-1 Cells Stimulated with Gramicidin
THP-1 cells were purchased from the American Type Culture Collection and sub-cultured according to instructions from the supplier. Prior to experiments, cells were cultured in complete RPMI 1640 (containing 10% heat inactivated FBS, penicillin (100 units/ml) and streptomycin (100 μg/ml)), and maintained in log phase prior to experimental setup. Prior to the experiment THP-1 were treated with PMA (Phorbol 12-myristate 13-acetate) (20 ng/mi) for 16-18 hours. Compounds were dissolved in dimethyl sulfoxide (DMSO) to generate a 30 mM stock. On the day of the experiment the media was removed and adherent cells were detached with trypsin for 5 minutes. Cells were then harvested, washed with complete RPMI 1640, spun down, resuspended in RPMI 1640 (containing 2% heat inactivated FBS, penicillin (100 units/ml) and streptomycin (100 μg/ml), The cells were plated in a 384-well plate at a density of 50,000 cells/well (final assay volume 50 μl). Compounds were first dissolved in assay medium to obtain a 5× top concentration of 500 μM. 10 step dilutions (1:3) were then undertaken in assay medium containing 1.67% DMSO. 5× compound solutions were added to the culture medium to achieve desired final concentration (e.g. 100, 33, 11, 3.7, 1.2, 0.41, 0.14, 0.046, 0.015, 0.0051, 0.0017 μM). Final DMSO concentration was at 0.37%. Cells were incubated with compounds for 1 hour and then stimulated with gramicidin (5 μM) (Enzo) for 2 hours. Plates were then centrifuged at 340 g for 5 min. Cell free supernatant (40 μL) was collected using a 96-channel PlateMaster (Gilson) and the production of IL-1β was evaluated by HTRF (cisbio). […]

[3] = average IC50, hTHP-1 assay containing 2% fetal bovine serum, class symbols
[4] = Homo sapiens, THP-1, average IC50, hTHP-1 assay containing 2% fetal bovine serum, class symbols
[5] = Homo sapiens, THP-1, average IC50, hTHP-1 assay containing 2% fetal bovine serum, given as numeric bound

Row | IC50 [2, 4] [nM] | SMILES | further results
1 |  | CNS(=O)(=O)c1ccc(S(=O)(=O)NC(=O)Nc2c(C(C)C)cc(C#N)c(F)c2C(C)C)c(OC)c1 [Compound 118] | Kp at 8 h [1]: 5950; IC50 [2, 3]: 200 to 1000 nM
2 | 40 to 200 | CNS(=O)(=O)c1ccc(S(=O)(=O)NC(=O)Nc2c(C(C)C)cc(C#N)c(F)c2C(C)C)c(O)c1 [Compound 117] | 
3 | 1000 to 5000 | CC(C)(O)c1nc(CO)c(S(=O)(=O)NC(=O)Nc2c3c(nc4c2CCC4)CCC3)s1 [Compound 111] | 
4 | 1000 to 5000 | CNS(=O)(=O)c1ccc(S(=O)(=O)NC(=O)Nc2c3c(nc4c2CCC4C)CCC3)c(CO)c1 (stereo not shown) [Compound 203] | 
5 | 1000 to 5000 | CNS(=O)(=O)c1ccc(S(=O)(=O)NC(=O)Nc2c(C(C)C)cncc2C(C)C)cc1CO [Compound 109] | 
6 | 5000 to 30000 | CNS(=O)(=O)c1ccc(S(=O)(=O)NC(=O)Nc2c(C(C)C)cc(C#N)cc2C(C)C)c(C(=O)OC)c1 [Compound 115] | 
7 | 40 to 200 | CNS(=O)(=O)c1ccc(S(=O)(=O)NC(=O)Nc2c(C(C)C)cc(C#N)cc2C(C)C)c(O)c1 [Compound 119] | 
8 | 200 to 1000 | CC(C)c1cc(C#N)c(F)c(C(C)C)c1NC(=O)NS(=O)(=O)c1cc(C(C)(C)O)no1 [Compound 301] | 
9 | 1000 to 5000 | CC(C)c1cncc(C(C)C)c1NC(=O)NS(=O)(=O)c1sc(C(C)(C)O)nc1CO [Compound 104] | 
10 | 200 to 1000 | CC1CCc2c1nc1c(c2NC(=O)NS(=O)(=O)c2sc(C(C)(C)O)nc2CO)CCC1 (stereo not shown) [Compound 202] | 
11 |  | Cc1cc(C(=O)NCCc2ccc(S(=O)(=O)NC(=O)Nc3c4c(cc5c3CCC5)CCC4)cc2)no1 [Compound 303] | IC50 [2, 5]: > 30000 nM
12 |  | CNS(=O)(=O)c1ccc(S(=O)(=O)NC(=O)Nc2c(C(C)C)cc(C#N)c(F)c2C(C)C)c(OC)c1 [Compound 120] | IC50 [2, 3]: 40 to 200 nM
13 | 200 to 1000 | CNS(=O)(=O)c1ccc(S(=O)(=O)NC(=O)Nc2c3c(nc4c2CCC4)CCC3)c(CO)c1 [Compound 103] | 
14 | 1000 to 5000 | CNS(=O)(=O)c1ccc(S(=O)(=O)NC(=O)Nc2c(C(C)C)cncc2C(C)C)c(CO)c1 [Compound 105] | 
15 |  | Cc1cc(C(=O)NCCc2ccc(S(=O)(=O)NC(=O)Nc3c(C(C)C)cc(C#N)cc3C(C)C)cc2)no1 [Compound 302] | IC50 [2, 5]: > 30000 nM
16 | 1000 to 5000 | CC(C)c1c(F)c(C#N)cc(C2CCOCC2)c1NC(=O)NS(=O)(=O)c1sc(C(C)(C)O)nc1CO [Compound 112] | 
17 | 1000 to 5000 | CNS(=O)(=O)c1ccc(S(=O)(=O)NC(=O)Nc2c3c(nc4c2CCC4)CCC3)c(OC)c1 [Compound 108] | 
18 | 1000 to 5000 | CC(C)c1cc(C#N)cc(C2CC2)c1NC(=O)NS(=O)(=O)c1sc(C(C)(C)O)nc1CO [Compound 121] | 
19 |  | CC(C)c1nc(-c2cccc(C(F)(F)F)c2)c(F)c(C(C)C)c1NC(=O)NS(=O)(=O)c1sc(C(C)(C)O)nc1CO[Si](C)(C)C(C)(C)C [Compound 107] | IC50 ([2]; Homo sapiens, THP-1): 1000 to 5000 nM
20 | 5000 to 30000 | CC(C)c1cc(C#N)cc(CCO)c1NC(=O)NS(=O)(=O)c1sc(C(C)(C)O)nc1CO [Compound 114] | 
21 | 200 to 1000 | CC(C)(O)c1nc(CO)c(S(=O)(=O)NC(=O)Nc2c3c(nc4c2CCC4(C)C)CCC3)s1 [Compound 201] | 
22 |  | O=C(CCCC[C@@H]1SC[C@@H]2NC(=O)N[C@@H]21)NCCCn1cc(CCC(=O)Nc2cccc(S(=O)(=O)NC(=O)Nc3c4c(cc5c3CCC5)CCC4)c2)nn1 [Compound 324] | IC50 [2, 5]: > 30000 nM
23 |  | CC(C)c1c(F)c(C#N)cc(C2CCOCC2)c1NC(=O)NS(=O)(=O)c1sc(C(C)(C)O)nc1CO [Compound 204] | IC50 [2, 5]: > 15000 nM
24 | 5000 to 30000 | COC(=O)c1sc2c(c1NC(=O)NS(=O)(=O)c1ncc(C(C)(C)O)s1)CCCC2 [Compound 304] | 
25 | 200 to 1000 | CC(C)c1cc2c(c(C(C)C)c1NC(=O)NS(=O)(=O)c1sc(C(C)(C)O)nc1CO)COC2 [Compound 106] | 

Row | SMILES | IC50 [2, 4] [nM] | further results
26 | CNS(=O)(=O)c1ccc(S(=O)(=O)NC(=O)Nc2c3c(cc4c2CCC4)CCC3)c(O)c1 [Compound 124] | 5000 to 30000 | Kp at 8 h [1]: 26
27 | CNS(=O)(=O)c1ccc(S(=O)(=O)NC(=O)Nc2c(C(C)C)cc(C#N)cc2C(C)C)c(CO)c1 [Compound 116] | 200 to 1000 | Mouse TD Colon/Plasma @ 8 [1]: 18,645
28 | CC(C)c1cc(C#N)c(F)c(C(C)C)c1NC(=O)NS(=O)(=O)c1sc(C(C)(C)O)nc1CCO [Compound 102] | 40 to 200 | Kp at 8 h [1]: 802
29 | CC(C)c1cc(C#N)cc(C(C)C)c1NC(=O)NS(=O)(=O)c1sc(C(C)(C)O)nc1CO [Compound 101] | 200 to 1000 | Kp at 8 h [1]: 3000
30 | CC(C)c1cc(C#N)c(F)c(C(C)C)c1NC(=O)NS(=O)(=O)c1sc(C(C)(C)O)nc1CO [Compound 123] | 200 to 1000 | Mouse TD Colon/Plasma @ 8 [1]: 12,731
31 | CCC(C)c1cc(C#N)c(F)c(C(C)C)c1NC(=O)NS(=O)(=O)c1sc(C(C)(C)O)nc1CO (stereo not shown) [Compound 113] | 200 to 1000 | Kp at 8 h [1]: 4560
32 | CC(C)(O)c1nc(CO)c(S(=O)(=O)NC(=O)Nc2c3c(c(C#N)c4c2CCC4)CCC3)s1 [Compound 122] | 1000 to 5000 | Kp at 8 h [1]: 3530
